Data taken from ChEMBL document CHEMBL1201862, “PubChem BioAssay data set” (2004).
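48-hour exposure; five concentrations; linearly interpolated endpoints. The concentration for 50% growth inhibition is given as GI50.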 Calls of active or inactive are those of the source. No stated cut-off is given here; in the data, active = GI50 up to about 1.1 µM and inactive = higher.

Experiments:
Test in all cases: NCI anticancer screen, dose series, 48 h
[1] = system: HOP-62
[2] = system: OVCAR-5
[3] = system: 786-0
[4] = system: RPMI-8226
[5] = system: EKVX
[6] = system: MDA-N
[7] = system: SF-268
[8] = system: MDA-MB-231
[9] = system: OVCAR-3
[10] = system: OVCAR-8
[11] = system: DMS-114
[12] = system: BT-549
[13] = system: DU-145
[14] = system: HL-60
[15] = system: OVCAR-4
[16] = system: CAKI-1
[17] = system: SNB-75
[18] = system: RXF 393
[19] = system: SF-539
[20] = system: T47D
[21] = system: Hs-578T
[22] = system: MOLT-4
[23] = system: Malme-3M
[24] = system: M19-MEL
[25] = system: TK-10
[26] = system: HCC 2998
[27] = system: SN12C
[28] = system: HCT-116
[29] = system: SF-295
[30] = system: M14
[31] = system: UACC-62
[32] = system: NCI-H23
[33] = system: A498
[34] = system: DMS-273
[35] = system: CCRF-CEM
[36] = system: ACHN
[37] = system: SW-620
[38] = system: LOX IMVI
[39] = system: NCI-H226
[40] = system: HT-29
[41] = system: PC-3
[42] = system: SK-OV-3
[43] = system: NCI-H460
[44] = system: COLO 205
[45] = system: UO-31
[46] = system: A549
[47] = system: KM12
[48] = system: IGROV-1
[49] = system: SR
[50] = system: HOP-92
[51] = system: K562
[52] = system: SNB-19
[53] = system: SK-MEL-28
[54] = system: HCT-15
[55] = system: MDA-MB-435
[56] = system: DLD-1
[57] = system: SK-MEL-2
[58] = system: MCF7
[59] = system: SK-MEL-5
[60] = system: UACC-257
[61] = system: NCI-H522
[62] = system: LXFL 529
[63] = system: U-251

Measured: GI50

O=C(c1ccc(Cl)cc1)c1cnc(Nc2ccccc2Cl)s1
inactive: [1] 25.1 µM | [2] 29.8 µM | [3] 17.5 µM | [4] > 100 µM | [5] 22.9 µM | [6] 21.8 µM | [7] 26.4 µM | [8] 41.4 µM | [9] 18.3 µM | [10] 29.2 µM | [11] 24.7 µM | [12] 20.7 µM | [13] 20.3 µM | [14] > 100 µM | [15] 33.4 µM | [16] 17.3 µM | [17] 19.6 µM | [18] 20.7 µM | [19] 27.5 µM | [20] 19.3 µM | [21] 32.4 µM | [22] > 100 µM | [23] 19 µM | [24] 34.1 µM | [25] 18.5 µM | [26] 29 µM | [27] 22.3 µM | [28] 21 µM | [29] 21.5 µM | [30] 19.7 µM | [31] 21.5 µM | [32] 22 µM | [33] 3.91 µM | [34] 20.1 µM | [35] > 100 µM | [36] 18.9 µM | [37] 40.1 µM | [38] 36 µM | [39] 25.8 µM | [40] 27.1 µM | [41] 24.4 µM | [42] 23 µM | [43] 25.3 µM | [44] 37 µM | [45] 21.6 µM | [46] 23.9 µM | [47] 27.2 µM | [48] 23.2 µM | [49] > 100 µM | [50] 27.2 µM | [51] > 100 µM | [52] 20.2 µM | [53] 16.6 µM | [55] 32.6 µM | [56] 28.5 µM | [57] 15.6 µM | [58] 31.5 µM | [59] 18.5 µM | [60] 21 µM | [61] 23 µM | [62] 16.3 µM | [63] 28.1 µM
22.8 µM: [54]
